For orientation: IC50 means the concentration at which inhibition is half-maximal. Read a high IC50 as weaker potency in that assay.

This assay deals with T1, P2X4 receptor (Homo sapiens, UniProt Q99571).
T1 construct: expressed in transfected cells; host or cells: 1321N1 astrocytoma cells, retroviral vector pQCXIN, G418 selection, monoclones
T1 sequence (Q99571 1-388): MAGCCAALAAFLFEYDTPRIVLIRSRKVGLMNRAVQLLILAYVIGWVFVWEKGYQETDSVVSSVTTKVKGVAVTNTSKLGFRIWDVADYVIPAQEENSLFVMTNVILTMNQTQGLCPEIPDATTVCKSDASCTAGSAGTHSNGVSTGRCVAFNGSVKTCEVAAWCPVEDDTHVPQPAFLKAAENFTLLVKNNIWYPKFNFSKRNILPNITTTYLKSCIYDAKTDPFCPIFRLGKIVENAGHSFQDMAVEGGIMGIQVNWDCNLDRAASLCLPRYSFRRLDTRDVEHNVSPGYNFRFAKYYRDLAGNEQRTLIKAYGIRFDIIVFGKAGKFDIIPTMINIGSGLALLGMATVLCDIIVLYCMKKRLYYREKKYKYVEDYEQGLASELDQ
The experiment in a line: Measurement of Ca2+ influx in transfected 1321N1 astrocytoma cells (P2X4 inhibitory potency). The settings on record: agonist-mediated Ca2+ influx, FLUO-4, 1321N1 astrocytoma cells; antagonists added 30 min before agonist. It counts as cell-based. In a few lines: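 Stable 1321N1 astrocytoma cells expressing human P2X4, loaded with FLUO-4 AM (2.4 μM) in HBSS/HEPES pH 7.3 for 1 h at 23 °C. Antagonists added 30 min before agonist; fluorescence at 520 nm recorded for 30 s. Compounds tested at 7–8 concentrations spanning three log units.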
Regarding `Cc1noc(-c2ccc(C)c(NCC(=O)N3CCc4c3cccc4N3C(=O)CNC3=O)c2)n1` [Example 83, 3-(1-((2-methyl-5-(3-methyl-1,2,4-oxadiazol-5-yl)phenyl)glycyl)indolin-4-yl)imidazolidine-2,4-dione], the IC50 lay within 20 to 39 nM.

In the case of `Cc1nsc(-c2ccc(C)c(NCC(=O)N3CCc4c3ccnc4C(C)O)c2)n1` (stereo not drawn) [Example 92, 1-(4-(1-hydroxyethyl)-2,3-dihydro-1H-pyrrolo[3,2-c]pyridin-1-yl)-2-((2-methyl-5-(3-methyl-1,2,4-thiadiazol-5-yl)phenyl)amino)ethan-1-one], the IC50 is above 100 nM.

As to `CCc1nsc(-c2ccc(C)c(NCC(=O)N3CCc4c3cccc4S(=O)(=O)NC)c2)n1` [Example 26, 1-((5-(3-ethyl-1,2,4-thiadiazol-5-yl)-2-methylphenyl)glycyl)-N-methylindoline-N-sulfonamide], the IC50 is 0.1 to 19 nM.

Consider `Cc1noc(-c2ccc(C)c(NCC(=O)N3CCc4c(C(N)C(F)(F)F)cccc43)c2)n1` (stereo not drawn) [Example 89, 1-(4-(1-amino-2,2,2-trifluoroethyl)indolin-1-yl)-2-((2-methyl-5-(3-methyl-1,2,4-oxadiazol-5-yl)phenyl)-amino)ethan-1-one], for which the IC50 was 70 to 99 nM.

Regarding `COc1ccc2c(n1)CCN2C(=O)CNc1cc(-c2nc(C)ns2)ccc1C` [Example 42, 1-(5-methoxy-2,3-dihydro-1H-pyrrolo[3,2-b]pyridin-1-yl)-2-((2-methyl-5-(3-methyl-1,2,4-thiadiazol-5-yl)phenyl)-amino)ethan-1-one], the IC50 lay in the range of 20 to 39 nM.

For `Cc1nsc(-c2ccc(C)c(NCC(=O)N3CCc4c3cccc4C(C)(C)O)c2)n1` [Example 22, 1-(4-(2-hydroxypropan-2-yl)indolin-1-yl)-2-((2-methyl-5-(3-methyl-1,2,4-thiadiazol-5-yl)phenyl)amino)ethan-1-one], the IC50 lay within 0.1 to 19 nM.

Consider `COc1cc2[nH]cc(C(=O)CNc3cc(-c4nc(C)ns4)cc(F)c3OC)c2cc1F` [Example 101, 2-((3-fluoro-2-methoxy-5-(3-methyl-1,2,4-thiadiazol-5-yl)phenyl)amino)-1-(5-fluoro-6-methoxy-1H-indol-3-yl)ethan-1-one], for which the IC50 was 20 to 39 nM.

Compound `CCc1nsc(-c2ccc(F)c(NCC(=O)N3CCc4c(N5CC(O)C5)cccc43)c2)n1` [Example 56, 2-((5-(3-ethyl-1,2,4-thiadiazol-5-yl)-2-fluorophenyl)amino)-1-(4-(3-hydroxyazetidin-1-yl)indolin-1-yl)ethan-1-one] had an IC50 of 0.1 to 19 nM.

As for `COc1cccc2c1CCN2C(=O)CNc1cc(-c2nc(C)ns2)ccc1F` [Example 34, 2-((2-fluoro-5-(3-methyl-1,2,4-thiadiazol-5-yl)phenyl)amino)-1-(4-methoxyindolin-1-yl)ethan-1-one], the IC50 lay in the range of 20 to 39 nM.

For the compound `CC(=O)N(c1cccc2c1CCN2C(=O)CNc1cc(-c2nc(C)ns2)ccc1C)S(C)(=O)=O` [Example 77, N-(1-((2-methyl-5-(3-methyl-1,2,4-thiadiazol-5-yl)phenyl)-glycyl)indolin-4-yl)-N-(methylsulfonyl)acetamide], the IC50 lay within 20 to 39 nM.

In turn, `Cc1ccc(-c2ccc(F)c(NCC(=O)N3CCc4c(OCC(C)(C)O)cccc43)c2)o1` [Example 43, 2-((2-fluoro-5-(5-methylfuran-2-yl)phenyl)amino)-1-(4-(2-hydroxy-2-methylpropoxy)-indolin-1-yl)ethan-1-one] gave an IC50 of 20 to 39 nM.

`CCc1noc(-c2ccc(F)c(NCC(=O)N3CCc4cc(OC)c(F)cc43)c2)n1` [Example 3, 2-((5-(3-ethyl-1,2,4-oxadiazol-5-yl)-2-fluorophenyl)amino)-1-(6-fluoro-5-methoxyindolin-1-yl)ethan-1-one] had an IC50 of 20 to 39 nM.

Consider `Cc1noc(-c2ccc(C)c(NCC(=O)N3CCc4c(OCCC(C)(C)O)cccc43)c2)n1` [Example 47, 1-(4-(3-hydroxy-3-methylbutoxy)indolin-1-yl)-2-((2-methyl-5-(3-methyl-1,2,4-oxadiazol-5-yl)phenyl)amino)ethan-1-one], for which the IC50 lay within 20 to 39 nM.

`Cc1noc(-c2ccc(F)c(NCC(=O)N3CCc4c(C(O)C(F)(F)F)cccc43)c2)n1` (stereo not drawn) [Example 41, 2-((2-fluoro-5-(3-methyl-1,2,4-oxadiazol-5-yl)phenyl)amino)-1-(4-(2,2,2-trifluoro-1-hydroxyethyl)indolin-1-yl)ethan-1-one]: the IC50 lay within 20 to 39 nM.

Regarding `C#Cc1nsc(-c2ccc(C)c(NCC(=O)N3CCc4c(OC)cccc43)c2)n1` [Example 15, 2-((5-(3-ethynyl-1,2,4-thiadiazol-5-yl)-2-methylphenyl)amino)-1-(4-methoxyindolin-1-yl)ethan-1-one], the IC50 fell in the range of 0.1 to 19 nM.

`COc1cccc2c1CCN2C(=O)CNc1cc(-c2nc(C)ns2)cc(F)c1OC` [Example 8, 2-((3-fluoro-2-methoxy-5-(3-methyl-1,2,4-thiadiazol-5-yl)phenyl)amino)-1-(4-methoxyindolin-1-yl) ethan-1-one] displayed an IC50 of 70 to 99 nM.

With `Cc1nsc(-c2ccc(C)c(NCC(=O)N3CCc4c(-c5cc[nH]n5)cccc43)c2)n1` [Example 70, 1-(4-(1H-pyrazol-3-yl)indolin-1-yl)-2-((2-methyl-5-(3-methyl-1,2,4-thiadiazol-5-yl)phenyl)amino)ethan-1-one], the IC50 lay within 0.1 to 19 nM.

Compound `Cc1nsc(-c2ccc(C)c(NCC(=O)c3c[nH]c4ncccc34)c2)n1` [Example 100, 2-((2-methyl-5-(3-methyl-1,2,4-thiadiazol-5-yl)phenyl)amino)-1-(1H-pyrrolo [2,3-b]pyridin-3-yl) ethan-1-one] showed an IC50 of 20 to 39 nM.

Take `CCc1nsc(-c2ccc(C)c(NCC(=O)N3CCc4c(C(=O)N5CCN(C)CC5)cccc43)c2)n1` [Example 45, 2-((5-(3-ethyl-1,2,4-thiadiazol-5-yl)-2-methylphenyl)amino)-1-(4-(4-methylpiperazine-1-carbonyl)indolin-1-yl) ethan-1-one]: the IC50 lay in the range of 20 to 39 nM.

`CCc1nsc(-c2ccc(C)c(NCC(=O)N3CCc4c(N5CCNCC5)cccc43)c2)n1` [Example 72, 2-((5-(3-ethyl-1,2,4-thiadiazol-5-yl)-2-methylphenyl)amino)-1-(4-(piperazin-1-yl)indolin-1-yl)ethan-1-one] came in with an IC50 of 20 to 39 nM.

Take `O=C(CNc1cc(-c2nc(Cl)ns2)ccc1Cl)N1CCc2c(O)cccc21` [Example 39, 2-((2-chloro-5-(3-chloro-1,2,4-thiadiazol-5-yl)phenyl)amino)-1-(4-hydroxyindolin-1-yl) ethan-1-one]: the IC50 is 20 to 39 nM.

`Cc1nsc(-c2ccc(C)c(NCC(=O)N3CCc4c3ccnc4C(C)(C)O)c2)n1` [Example 90, 1-(4-(2-Hydroxypropan-2-yl)-2,3-dihydro-1H-pyrrolo[3,2-c]pyridin-1-yl)-2-((2-methyl-5-(3-methyl-1,2,4-thiadiazol-5-yl)phenyl)amino)ethan-1-one] registered an IC50 above 100 nM.

For the compound `Cc1nsc(-c2ccc(C)c(NCC(=O)N3CCc4c(C(O)C(F)(F)F)cccc43)c2)n1` (stereo not drawn) [Example 33, 2-((2-methyl-5-(3-methyl-1,2,4-thiadiazol-5-yl)phenyl)amino)-1-(4-(2,2,2-trifluoro-1-hydroxyethyl)indolin-1-yl)ethan-1-one], the IC50 lay in the range of 20 to 39 nM.

For `Cc1nsc(-c2ccc(C)c(NCC(=O)c3c[nH]c4ccccc34)c2)n1` [Example 102, 1-(1H-indol-3-yl)-2-((2-methyl-5-(3-methyl-1,2,4-thiadiazol-5-yl)phenyl)amino)ethan-1-one], the 50% inhibitory concentration (IC50) lay in the range of 20 to 39 nM.

Compound `Cc1nsc(-c2ccc(C)c(NCC(=O)N3CCc4c3cccc4C(C)(O)CO)c2)n1` (racemic) [Example 62, 1-(4-(1,2-dihydroxypropan-2-yl)indolin-1-yl)-2-((2-methyl-5-(3-methyl-1,2,4-thiadiazol-5-yl)phenyl)amino)ethan-1-one] displayed an IC50 of 0.1 to 19 nM.

On to `CCc1nsc(-c2ccc(F)c(NCC(=O)N3CCc4c(C(C)O)cccc43)c2)n1` (stereo not drawn) [Example 21, 2-((5-(3-ethyl-1,2,4-thiadiazol-5-yl)-2-fluorophenyl)amino)-1-(4-(1-hydroxyethyl)indolin-1-yl)ethan-1-one], for which the IC50 fell in the range of 0.1 to 19 nM.

`Cc1nsc(-c2ccc(C)c(NCC(=O)N3CCc4c(O)cccc43)c2)n1` [Example 85, 1-(4-hydroxyindolin-1-yl)-2-((2-methyl-5-(3-methyl-1,2,4-thiadiazol-5-yl)phenyl)-amino)ethan-1-one] had a half-maximal inhibitory concentration (IC50) of 0.1 to 19 nM.

Compound `CCc1nsc(-c2ccc(C)c(NCC(=O)N3CCc4c(N5CC(O)C5)cccc43)c2)n1` [Example 66, 2-((5-(3-ethyl-1,2,4-thiadiazol-5-yl)-2-methylphenyl)amino)-1-(4-(3-hydroxyazetidin-1-yl)indolin-1-yl)ethan-1-one] had an IC50 of 20 to 39 nM.

`COc1nccc2c(C(=O)CNc3cc(-c4nc(C)ns4)ccc3C)c[nH]c12` [Example 110, 1-(7-methoxy-1H-pyrrolo[2,3-c]pyridin-3-yl)-2-((2-methyl-5-(3-methyl-1,2,4-thiadiazol-5-yl)phenyl)amino) ethan-1-one] had an IC50 of 20 to 39 nM.

The compound `Cc1noc(-c2ccc(C)c(NCC(=O)N3CCc4c(OCC(C)(C)O)cccc43)c2)n1` [Example 49, 1-(4-(2-hydroxy-2-methylpropoxy)indolin-1-yl)-2-((2-methyl-5-(3-methyl-1,2,4-oxadiazol-5-yl)phenyl)amino)ethan-1-one] gave an IC50 of 40 to 69 nM.

The values are drawn from patent US20260209215A1, “GLYCINE DERIVATIVES WITH P2X4 RECEPTOR-BLOCKING ACTIVITY AS DIAGNOSTICS AND FOR THE TREATMENT OF PAIN, INFLAMMATION, CANCER, AND OTHER P2X4 RECEPTOR-RELATED DISEASES” (RHEINISCHE-FRIEDRICH-WILHELMS-UNIVERSITÄT BONN, priority 2022, published 2026).
